# According to PubChem BioAssay (NCI):
#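 Where inhibition never reached the appropriate level, the endpoint shown equals the highest concentration tested. Otherwise, values were interpolated linearly from a five-concentration, 48-hour dose response in 96-well plates. The concentration for 50% growth inhibition is given as GI50. TGI: concentration producing complete growth inhibition.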
# Key:
# Assay in all cases: NCI-60 cell line screen, 48 h
# NCI-H460 lung = tested on: NCI-H460 lung
# SNB-19 CNS = tested on: SNB-19 CNS
# OVCAR-5 ovarian = tested on: OVCAR-5 ovarian
# HOP-92 NSCLC = tested on: HOP-92 NSCLC
# LOX IMVI melanoma = tested on: LOX IMVI melanoma
# CCRF-CEM leukemia = tested on: CCRF-CEM leukemia
# SF-539 CNS = tested on: SF-539 CNS
# SW-620 colon = tested on: SW-620 colon
# OVCAR-8 ovarian = tested on: OVCAR-8 ovarian
# U251 CNS = tested on: U251 CNS
# NCI-H226 lung = tested on: NCI-H226 lung
# ACHN renal = tested on: ACHN renal
# A498 renal = tested on: A498 renal
# RPMI-8226 leukemia = tested on: RPMI-8226 leukemia
# SF-268 CNS = tested on: SF-268 CNS
# PC-3 prostate = tested on: PC-3 prostate
# T-47D breast = tested on: T-47D breast
# SK-OV-3 ovarian = tested on: SK-OV-3 ovarian
# 786-0 renal = tested on: 786-0 renal
# CAKI-1 renal = tested on: CAKI-1 renal
# HCT-116 colon = tested on: HCT-116 colon
# SF-295 CNS = tested on: SF-295 CNS
# KM12 colon = tested on: KM12 colon
# OVCAR-3 ovarian = tested on: OVCAR-3 ovarian
# HT29 colon = tested on: HT29 colon
# HS 578T breast = tested on: HS 578T breast
# TK-10 renal = tested on: TK-10 renal
# DU-145 prostate = tested on: DU-145 prostate
# M14 melanoma = tested on: M14 melanoma
# BT-549 breast = tested on: BT-549 breast
# A549 NSCLC = tested on: A549 NSCLC
# SK-MEL-5 melanoma = tested on: SK-MEL-5 melanoma
# SK-MEL-2 melanoma = tested on: SK-MEL-2 melanoma
# MDA-MB-435 = tested on: MDA-MB-435
# UACC-257 melanoma = tested on: UACC-257 melanoma
# NCI/ADR-RES ovarian = tested on: NCI/ADR-RES ovarian
# MDA-MB-231 breast = tested on: MDA-MB-231 breast
# MOLT-4 leukemia = tested on: MOLT-4 leukemia
# COLO 205 colon = tested on: COLO 205 colon
# HCC-2998 colon = tested on: HCC-2998 colon
# RXF 393 renal = tested on: RXF 393 renal
# IGROV1 ovarian = tested on: IGROV1 ovarian
# NCI-H522 lung = tested on: NCI-H522 lung
# SK-MEL-28 melanoma = tested on: SK-MEL-28 melanoma
# MCF7 breast = tested on: MCF7 breast
# UACC-62 melanoma = tested on: UACC-62 melanoma
# HCT-15 colon = tested on: HCT-15 colon
# UO-31 renal = tested on: UO-31 renal
# SNB-75 CNS = tested on: SNB-75 CNS
# EKVX NSCLC = tested on: EKVX NSCLC
# HOP-62 NSCLC = tested on: HOP-62 NSCLC
# K-562 leukemia = tested on: K-562 leukemia
# MALME-3M melanoma = tested on: MALME-3M melanoma
# HL-60(TB) leukemia = tested on: HL-60(TB) leukemia
# SN12C renal = tested on: SN12C renal
# SR leukemia = tested on: SR leukemia
# OVCAR-4 ovarian = tested on: OVCAR-4 ovarian
compound,measurement,setting,value
CN1CCN(Cc2ccc(NC(=O)c3cncc(C#Cc4cnc(N)nc4)c3)cc2C(F)(F)F)CC1,GI50,NCI-H460 lung,306 nM
same,TGI,NCI-H460 lung,6230 nM
same,GI50,SNB-19 CNS,4380 nM
same,TGI,SNB-19 CNS,27600 nM
same,GI50,OVCAR-5 ovarian,994 nM
same,TGI,OVCAR-5 ovarian,9760 nM
same,GI50,HOP-92 NSCLC,157 nM
same,TGI,HOP-92 NSCLC,1230 nM
same,GI50,LOX IMVI melanoma,189 nM
same,TGI,LOX IMVI melanoma,846 nM
same,GI50,CCRF-CEM leukemia,1160 nM
same,TGI,CCRF-CEM leukemia,16000 nM
same,GI50,SF-539 CNS,263 nM
same,TGI,SF-539 CNS,3780 nM
same,GI50,SW-620 colon,490 nM
same,TGI,SW-620 colon,6410 nM
same,GI50,OVCAR-8 ovarian,1070 nM
same,TGI,OVCAR-8 ovarian,9570 nM
same,GI50,U251 CNS,521 nM
same,TGI,U251 CNS,9280 nM
same,GI50,NCI-H226 lung,203 nM
same,TGI,NCI-H226 lung,2220 nM
same,GI50,ACHN renal,244 nM
same,TGI,ACHN renal,5230 nM
same,GI50,A498 renal,228 nM
same,TGI,A498 renal,1140 nM
same,GI50,RPMI-8226 leukemia,660 nM
same,TGI,RPMI-8226 leukemia,6430 nM
same,GI50,SF-268 CNS,930 nM
same,TGI,SF-268 CNS,8720 nM
same,GI50,PC-3 prostate,821 nM
same,TGI,PC-3 prostate,17200 nM
same,GI50,T-47D breast,916 nM
same,TGI,T-47D breast,50000 nM
same,GI50,SK-OV-3 ovarian,174 nM
same,TGI,SK-OV-3 ovarian,1120 nM
same,GI50,786-0 renal,849 nM
same,TGI,786-0 renal,5790 nM
same,GI50,CAKI-1 renal,150 nM
same,TGI,CAKI-1 renal,763 nM
same,GI50,HCT-116 colon,231 nM
same,TGI,HCT-116 colon,5160 nM
same,GI50,SF-295 CNS,1430 nM
same,TGI,SF-295 CNS,9220 nM
same,GI50,KM12 colon,52.1 nM
same,TGI,KM12 colon,7270 nM
same,GI50,OVCAR-3 ovarian,957 nM
same,TGI,OVCAR-3 ovarian,10100 nM
same,GI50,HT29 colon,351 nM
same,TGI,HT29 colon,6010 nM
same,GI50,HS 578T breast,331 nM
same,TGI,HS 578T breast,2290 nM
same,GI50,TK-10 renal,810 nM
same,TGI,TK-10 renal,7170 nM
same,GI50,DU-145 prostate,385 nM
same,TGI,DU-145 prostate,11400 nM
same,GI50,M14 melanoma,178 nM
same,TGI,M14 melanoma,1280 nM
same,GI50,BT-549 breast,1240 nM
same,TGI,BT-549 breast,5470 nM
same,GI50,A549 NSCLC,1010 nM
same,TGI,A549 NSCLC,8740 nM
same,GI50,SK-MEL-5 melanoma,1180 nM
same,TGI,SK-MEL-5 melanoma,5700 nM
same,GI50,SK-MEL-2 melanoma,110 nM
same,TGI,SK-MEL-2 melanoma,339 nM
same,GI50,MDA-MB-435,247 nM
same,TGI,MDA-MB-435,5560 nM
same,GI50,UACC-257 melanoma,773 nM
same,TGI,UACC-257 melanoma,6120 nM
same,GI50,NCI/ADR-RES ovarian,3560 nM
same,TGI,NCI/ADR-RES ovarian,19900 nM
same,GI50,MDA-MB-231 breast,258 nM
same,TGI,MDA-MB-231 breast,3460 nM
same,GI50,MOLT-4 leukemia,449 nM
same,TGI,MOLT-4 leukemia,11600 nM
same,GI50,COLO 205 colon,398 nM
same,TGI,COLO 205 colon,5610 nM
same,GI50,HCC-2998 colon,1350 nM
same,TGI,HCC-2998 colon,9530 nM
same,GI50,RXF 393 renal,346 nM
same,TGI,RXF 393 renal,4180 nM
same,GI50,IGROV1 ovarian,189 nM
same,TGI,IGROV1 ovarian,5210 nM
same,GI50,NCI-H522 lung,376 nM
same,TGI,NCI-H522 lung,6930 nM
same,GI50,SK-MEL-28 melanoma,560 nM
same,TGI,SK-MEL-28 melanoma,3540 nM
same,GI50,MCF7 breast,1470 nM
same,TGI,MCF7 breast,11600 nM
same,GI50,UACC-62 melanoma,298 nM
same,TGI,UACC-62 melanoma,3390 nM
same,GI50,HCT-15 colon,556 nM
same,TGI,HCT-15 colon,12900 nM
same,GI50,UO-31 renal,396 nM
same,TGI,UO-31 renal,2880 nM
same,GI50,SNB-75 CNS,123 nM
same,TGI,SNB-75 CNS,1000 nM
same,GI50,EKVX NSCLC,1200 nM
same,TGI,EKVX NSCLC,14600 nM
same,GI50,HOP-62 NSCLC,952 nM
same,TGI,HOP-62 NSCLC,6430 nM
same,GI50,K-562 leukemia,5 nM
same,TGI,K-562 leukemia,50000 nM
same,GI50,MALME-3M melanoma,150 nM
same,TGI,MALME-3M melanoma,653 nM
same,GI50,HL-60(TB) leukemia,283 nM
same,TGI,HL-60(TB) leukemia,3590 nM
same,GI50,SN12C renal,332 nM
same,TGI,SN12C renal,5740 nM
same,GI50,SR leukemia,425 nM
same,TGI,SR leukemia,8480 nM
same,GI50,OVCAR-4 ovarian,553 nM
same,TGI,OVCAR-4 ovarian,9750 nM
